Source: patent US8574546B2, “Substituted aryl-fluoroborates as imaging agents” (The University of British Columbia, priority 2007, dated 2013)

Columns and labels:
[1] = [18F] isotope exchange of [18/19F]-(3), dissociation rate of [18F]-fluoride from the trifluoroborate; format: physicochemical; details: 200 mM PO4, pH 7.5, 100 mM [19F]-NaF
Description: [^18F] Isotope Exchange—Using the Low-Activity Radiochemical Synthesis of [^18/19F]-(3).
In order to assay the dissociation rate of [^18F]-fluoride from the trifluoroborate (3), The six aliquots of Sample-A (each 10 μL, 1.5 nmol [^18/19F]-(3), 0.45 μCi (t=184 min)) were diluted 30 fold into 300 μL of a 200 mM PO4, pH 7.5, 100 mM [^19F]—NaF solution at different times. A volume of 0.5 μL of each dilution was spotted on a TLC plate which is run 2 inches in a 5:95 NH4OH:ethanol developing solution. Each spot that was deposited on the plate had spent increasing amounts of time in the solution containing a vast excess of [^19F]-fluoride. Following autoradiography, a rate constant for the isotopic exchange of [^18F]-fluoride from [^18/19F]-(3) was calculated.

[2] = Rate of defluorination (18F/19F isotopic exchange) of aryltrifluoroborates, TLC autoradiography; format: physicochemical; details: FIGS. 1-4, time points 0-180 minutes after labeling
Description: A solution of boronic acid/ester at approximately 200 mM in 3 μl DMF is made, and 3 μL of aqueous fluoride at 800 mM added, comprising ˜1 mCi of carrier free ^18F (˜0.6 pmol of ^18F) and carrier ^19F in the form of KHF2 in 800 mM HOAc at pH 3-4, in a total volume of 10 μl at 10 mM total, providing 100 nmol of total fluoride at a pH of 4.5. Following a one hour labeling reaction at room temperature, the extent of fluorination as well as the stability with regards to isotopic exchange is evaluated by thin layer chromotography TLC as described below.
1 μL of the fluorination mix is diluted 1:100 in 200 mM phosphate buffer pH 7.5, 100 mM K^19F and allowed to equilibrate. A “zero” time point is taken, consisting of 1 μL of the fluorination mix added to the above phosphate-KF solution, mixed and then 0.5 μL of this dilution is immediately spotted on a TLC plate. […] A separate dilution is made for each time point. Spots are dried on the plate briefly in ambient air. […]
Once completed, an aliquot (1.5 μL) from the fluorination reaction solution is the added to a volume of 300 μL of a chase solution containing 200 mM phosphate and 100 mM KF (pH 7.5). […] Autoradiograms are then generated and analyzed by a phosphoimager. The densities of the free fluoride spot and the ArBF3 spot are quantified. […]

| Structure (SMILES) | period in which 10% of the fluoride is solvolytically liberated [1] [min] | retention of the fluorine radioisotope (18F) on TLC autoradiogram [2] |
| --- | --- | --- |
| O=C1N[C@H]2[C@H](CS[C@H]2CCCCC(=O)N2CCN(C(=O)c3c(F)cc(F)c([B-](F)(F)F)c3F)CC2)N1 [(3), (2-(1,3,5-trifluoro-4-(trifluoroboryl)benzoyl)piperazin-1-yl) biotin] | ≥ 833 |  |
| O=C(O)c1cccc(B(O)O)c1 [Compound 12] |  | retain the fluorine radioisotope longer than compounds 10 or 19 |
| OB(O)c1cccc(F)c1F [Compound 22] |  | retain the fluorine radioisotope longer than compounds 10 or 19 |
